The text below walks through data of patent publication US20160250255A1, “METHODS FOR INDUCTION OF ANTIGEN-SPECIFIC REGULATORY T CELLS” (IMCYSE SA, priority 2013, published 2016).

In assay [1] the test system is WEHI 231 cells. Nature of the assay: Induction of apoptosis of B cell line WEHI 231 by peptide-expanded NKT cells. It is filed as cell-based, BALB/c mice. Conditions: WEHI 231 B cell line (H-2d) as APC; NKT cells elicited with the peptide; FIG. 3, means of 2 experiments and SEM. The text has this:
FIG. 3 depicts similar experiments (means of 2 experiments and SEM) but using a B cell line (WEHI 231 cells). WEHI cells are derived from BALB/c mice (H-2d) and not from C57BL/6 mice (H-2b). The histo-incompatibility between the 2 strains prevents presentation of peptides designed for C57BL/6 mice by BALB/c MHC class II, but not presentation by the non-polymorphic CD1d molecule. […] ID NO: 1 or SEQ. ID NO: 2.

The test system of assay [2] is dendritic cells. Nature of the assay: Induction of apoptosis of peptide-loaded dendritic cells by peptide-expanded NKT cells (annexin V binding). It is filed as cell-based, C57BL/6 mice. Conditions: NKT cells expanded with the peptide; FIG. 1, means of 2 experiments and SEM; negative control dendritic cells with no peptides. Here is the method:
Antigen-presenting cells (APC) are prepared from C57BL/6 mice and loaded with a peptide encompassing a CD1d-restricted NKT cell peptide epitope of hexon-6 capsid protein of adenovirus 5 vector used for gene therapy or gene vaccination.
Dendritic cells loaded with one of these peptides are then incubated with naïve CD62L+ CD4+ cells obtained from the spleen. After several cycles of stimulation, the capacity of NKT cells to induce apoptosis of the corresponding APC is measured and a comparison is established between peptides for their capacity to induce apoptosis.
The results shown in FIG. 1 (means of 2 experiments and SEM) indicate that NKT cells expanded with peptide of either SEQ. ID NO: 1 or SEQ. […] Negative controls include dendritic cells incubated with no peptides.

The subject of assay [3] is APCs. The assay can be described thus: Capacity of NKT cells to induce apoptosis of APCs, peptide with modified CD1d binding motif. It is filed as cell-based. Conditions: W substituted at position P7 of the CD1d binding motif. The method, then: Modification of the core sequence of the CD1d binding motif is carried out by introducing a hydrophobic amino acid at position P7 of the motif and generates the peptide IAFRDN FIGLMYW [SEQ. ID NO: 3], in which W at position 7 increases the binding to the hydrophobic pocket of CD1d.

Take “CHGCGGFIGLMYY (redutase motif + hexon 6 capsid protein) [SEQ. ID NO: 2, residues 333 to 339 of the hexon-6 protein containing a thioreductase motif (CxxC) within flanking residues (GG)]”: the induction of apoptosis entry in assay [1] was “significant induction of apoptosis”. Besides, in assay [2], the “apoptosis of dendritic cells, as measured by annexin V binding” value was “elicit apoptosis of dendritic cells”. For “IAFRDNFIGLMYW (modified version of hexon 6 capsid protein) [SEQ. ID NO: 3]”, the “capacity of NKT cells to induce apoptosis of APCs” value in assay [3] is “further boosts the capacity of NKT cells to induce apoptosis of APCs”. In the case of “IAFRDNFIGLMYY (fragment of hexon 6 capsis protein) [SEQ. ID NO: 1, amino acid residues 327 to 339 of the hexon-6 protein of adenovirus 5]”, in assay [1], the induction of apoptosis result is reported as “significant induction of apoptosis”. Besides, the “apoptosis of dendritic cells, as measured by annexin V binding” value in assay [2] was “elicit apoptosis of dendritic cells”.
